Experimental data published in article PMC8105289 (European journal of medicinal chemistry, 2021).
Marks after values point to notes of the source that are not given here.

What was measured:
[1] = shake-flask; conditions: not told
[2] = potentiometric titration; conditions: not told
[3] = logP / logD7.4 by potentiometric titration; conditions: for logD: n-octanol/aqueous buffer, pH 7.4; for logP: n-octanol/water
[4] = Parallel artificial membrane permeability assay; conditions: for Papp: PAMPA; for PAMPA logPapp: log of the apparent permeability coefficient; for PAMPA % retention (membrane retention): Corning Gentest pre-coated PAMPA plate, HPLC-UV
[5] = ΔlogP
[6] = logD7.4 by shake-flask method; conditions: for logD: n-octanol/aqueous buffer, pH 7.4
[7] = pKa by potentiometric titration
[8] = ionic strength adjusted water (0.15 M KCl), pKa, potentiometric titration, Sirius T3, 0.15 M KCl
[9] = ionic strength adjusted water (0.15 M KCl), pKa units higher than the pKa value of 9
[10] = potentiometric titration, Sirius T3
[11] = potentiometric titration, Sirius T3, 0.15 M KCl

log partition n-octanol / aqueous buffer pH 7.4 [1] [log10 concentration ratio]	log partition n-octanol / aqueous buffer pH 7.4 [2] [log10 concentration ratio]	log partition n-octanol / water (0.15 M KCl) [2] [log10 concentration ratio]	logD [3]	logP [3]	Papp [4] [×10⁻⁶ cm/s]	PAMPA logPapp [4]	logD [6]	SMILES	other results
–	0.87	0.88±0.02	–	–	–	–	–	CS(=O)(=O)NC1(CCc2ccccc2)CS(=O)C1 (stereo not drawn)	–
1.96	–	–	–	–	10.2	−4.99	1.96	CN(C)S(=O)(=O)NC1(CCc2ccccc2)COC1 [Compound 17, N,N-Dimethyl-[3-(2-phenylethyl)oxetane-3-yl]sulfamoyl-amine]	–
2.44	–	–	–	–	14.6	−4.8	2.44	CS(=O)(=O)NC1(CCc2ccccc2)CSC1 [Compound 18, N-(3-Phenethylthietan-3-yl)methanesulfonamide]	pKa [7, 9]: > 5
2.96	–	–	–	–	–	–	2.96	O=S(=O)(NC1(CCc2ccccc2)CSC1)c1ccccc1 [Compound 19, N-(3-Phenethylthietan-3-yl)benzenesulfonamide]	pKa [7, 8]: > 12
2.83	–	–	–	–	11.4	−4.9	2.83	CN(C)S(=O)(=O)NC1(CCc2ccccc2)CSC1 [Compound 20, N,N-Dimethyl-[3-(2-phenylethyl)thietan-3-yl]sulfamoyl-amine]	PAMPA % retention (membrane retention) [4]: 0.373%
–	1.03	1.03±0.01	1.03	1.03 ± 0.01	3.66	−5.4	–	CS(=O)(=O)NC1(CCc2ccccc2)CS(=O)(=O)C1 [Compound 24, N-(1,1-Dioxido-3-phenethylthietan-3-yl)methanesulfonamide]	pKa [7, 9]: > 5
–	1.82	1.83±0.05	1.82	1.83 ± 0.05	4.43	−5.35	–	CN(C)S(=O)(=O)NC1(CCc2ccccc2)CS(=O)(=O)C1 [Compound 26, 3-[(Dimethylsulfamoyl)amino]-3-(2-phenylethyl)-1lambda6-thietane-1,1-dione]	PAMPA % retention (membrane retention) [4]: 0.105%

The next lines start with the molecule.

SMILES	log partition n-octanol / aqueous buffer pH 7.4 [1] [log10 concentration ratio]	log partition n-octanol / aqueous buffer pH 7.4 [2] [log10 concentration ratio]	log partition n-octanol / water (0.15 M KCl) [2] [log10 concentration ratio]	logD [3]	logP [3]	Papp [4] [×10⁻⁶ cm/s]	PAMPA logPapp [4]	logD [6]	other results
CN(C)S(=O)(=O)NC1(CCc2ccccc2)CS(=O)C1 (stereo not drawn)	1.45	–	–	–	–	–	–	–	–
O=S1CC(CCc2ccccc2)(NS(=O)(=O)c2ccccc2)C1 (stereo not drawn)	0.76	–	–	–	–	–	–	–	–
CC1(NS(=O)(=O)CCc2ccccc2)COC1 [Compound 13, N-(3-Methyloxetan-3-yl)-2-phenylethane-1-sulfonamide]	–	1.58	1.58±0.06	1.58	1.58 ± 0.06	6.79	−5.17	–	ΔlogPcyclohexane ([5]; logPoctanol-water − logPcyclohexane-water): 1.87 ± 0.04; ΔlogPheptane ([5]; logPoctanol-water − logPheptane-water): 1.60 ± 0.05; ΔlogPtoluene ([5]; logPoctanol-water − logPtoluene-water): 0.43 ± 0.04
CC(=O)NC1(CCc2ccccc2)CS(=O)(=O)C1 [Compound 14, N-(1,1-Dioxido-3-phenethylthietan-3-yl)acetamide]	1.18	–	–	–	–	2.11	−5.68	1.18	pKa [7, 8]: > 12
O=S(=O)(NC1(CCc2ccccc2)COC1)c1ccccc1 [Compound 16, N-(3-Phenethyloxetan-3-yl)benzenesulfonamide]	2.76	–	–	–	–	7.06	−5.2	2.76	PAMPA % retention (membrane retention) [4]: 0.260%
CS(=O)(=O)N[C@]1(CCc2ccccc2)C[S@+]([O-])C1 [Compound 21, cis-N-(1-Oxido-3-phenethylthietan-3-yl)methanesulfonamide]	–	–	–	–	–	–	–	–	logP [3, 10]: 0.88±0.02; pKa units higher than the pKa value of 9 [7]: > 5; pKa [7, 11]: 9.87±0.01
CN(C)S(=O)(=O)N[C@]1(CCc2ccccc2)C[S@+]([O-])C1 [Compound 23, cis-3-[(Dimethylsulfamoyl)amino]-3-(2-phenylethyl)-1lambda4-thietan-1-one]	–	–	–	–	–	–	−5.47	–	logD7.4 ([6]; n-octanol/aqueous buffer pH 7.4, shake-flask assay run by Analiza): 1.45^†; pKa [7, 11]: 10.33±0.02
O=S1(=O)CC(CCc2ccccc2)(NS(=O)(=O)c2ccccc2)C1 [Compound 25, N-(1,1-Dioxido-3-phenethylthietan-3-yl)benzenesulfonamide]	1.89	–	–	–	–	–	–	1.89	–
CS(=O)(=O)Nc1cc(-c2ccccc2)on1 [Compound 27, N-(5-Phenylisoxazol-3-yl)methanesulfonamide]	–	−0.42	0.58±0.02	-0.42	0.58 ± 0.02	1.16	−5.94	–	–
O=S(=O)(Nc1cc(-c2ccccc2)on1)c1ccccc1 [Compound 28, N-(5-Phenylisoxazol-3-yl)benzenesulfonamide]	–	0.99	1.76±0.03	0.99	1.76 ± 0.03	5.79	−5.24	–	–
CN(C)S(=O)(=O)Nc1cc(-c2ccccc2)on1 [Compound 29, N-(5-Phenylisoxazol-3-yl)-N,N-dimethylaminesulfonamide]	–	0.42	0.85±0.01	–	–	–	–	–	logP [3, 10]: 0.85±0.01; PAMPA % retention (membrane retention) [4]: 0.131%; pKa [7, 11]: 5.62±0.02
CS(=O)(=O)Nc1cn(-c2ccccc2)nn1 [Compound 30, N-(1-Phenyl-1H-1,2,3-triazol-4-yl)methanesulfonamide]	–	0.06	1.16±0.03	0.06	1.16 ± 0.03	2.42	−5.62	–	–
O=S(=O)(Nc1cn(-c2ccccc2)nn1)c1ccccc1 [Compound 31, N-(1-Phenyl-1H-1,2,3-triazol-4-yl)benzenesulfonamide]	–	1.06	2.55±0.04	1.06	2.55 ± 0.04	4.09	−5.39	–	–
CN(C)S(=O)(=O)Nc1cn(-c2ccccc2)nn1 [Compound 32, N-(1-Phenyl-1H-1,2,3-triazol-4-yl)-N,N-dimethylaminesulfonamide]	–	0.69	1.72±0.01	–	–	–	−5.42	–	logP [3, 10]: 1.72±0.01; pKa [7, 11]: 6.42±0.01
